Data published in PubChem BioAssay (NCI).
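In this assay, cells in 96-well plates receive the compound at five concentrations for 48 hours. Endpoints are linearly interpolated between the surrounding concentrations. At the GI50, growth is halved. The concentration for full growth arrest is given as TGI.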

Tests used:
Assay in all cases: growth of human tumour cells (NCI), 48 h
786-0 renal = system: 786-0 renal
A498 renal = system: A498 renal
A549 NSCLC = system: A549 NSCLC
ACHN renal = system: ACHN renal
BT-549 breast = system: BT-549 breast
CAKI-1 renal = system: CAKI-1 renal
CCRF-CEM leukemia = system: CCRF-CEM leukemia
COLO 205 colon = system: COLO 205 colon
DU-145 prostate = system: DU-145 prostate
EKVX NSCLC = system: EKVX NSCLC
HCC-2998 colon = system: HCC-2998 colon
HCT-116 colon = system: HCT-116 colon
HCT-15 colon = system: HCT-15 colon
HL-60(TB) leukemia = system: HL-60(TB) leukemia
HOP-62 NSCLC = system: HOP-62 NSCLC
HOP-92 NSCLC = system: HOP-92 NSCLC
HS 578T breast = system: HS 578T breast
HT29 colon = system: HT29 colon
IGROV1 ovarian = system: IGROV1 ovarian
K-562 leukemia = system: K-562 leukemia
KM12 colon = system: KM12 colon
LOX IMVI melanoma = system: LOX IMVI melanoma
M14 melanoma = system: M14 melanoma
MALME-3M melanoma = system: MALME-3M melanoma
MCF7 breast = system: MCF7 breast
MDA-MB-231 breast = system: MDA-MB-231 breast
MDA-MB-435 = system: MDA-MB-435
MOLT-4 leukemia = system: MOLT-4 leukemia
NCI-H226 lung = system: NCI-H226 lung
NCI-H23 lung = system: NCI-H23 lung
NCI-H460 lung = system: NCI-H460 lung
NCI-H522 lung = system: NCI-H522 lung
NCI/ADR-RES ovarian = system: NCI/ADR-RES ovarian
OVCAR-3 ovarian = system: OVCAR-3 ovarian
OVCAR-4 ovarian = system: OVCAR-4 ovarian
OVCAR-5 ovarian = system: OVCAR-5 ovarian
OVCAR-8 ovarian = system: OVCAR-8 ovarian
PC-3 prostate = system: PC-3 prostate
RPMI-8226 leukemia = system: RPMI-8226 leukemia
RXF 393 renal = system: RXF 393 renal
SF-268 CNS = system: SF-268 CNS
SF-295 CNS = system: SF-295 CNS
SF-539 CNS = system: SF-539 CNS
SK-MEL-2 melanoma = system: SK-MEL-2 melanoma
SK-MEL-28 melanoma = system: SK-MEL-28 melanoma
SK-MEL-5 melanoma = system: SK-MEL-5 melanoma
SK-OV-3 ovarian = system: SK-OV-3 ovarian
SN12C renal = system: SN12C renal
SNB-19 CNS = system: SNB-19 CNS
SNB-75 CNS = system: SNB-75 CNS
SR leukemia = system: SR leukemia
SW-620 colon = system: SW-620 colon
T-47D breast = system: T-47D breast
TK-10 renal = system: TK-10 renal
U251 CNS = system: U251 CNS
UACC-257 melanoma = system: UACC-257 melanoma
UACC-62 melanoma = system: UACC-62 melanoma
UO-31 renal = system: UO-31 renal

O=C(CC1(O)C(=O)N(Cc2ccccc2)c2ccc(Br)cc21)c1ccc(C(=O)NCC2CCC3(CC2)OOC2(CCCCC2)OO3)cc1 (stereo unspecified)
GI50 (786-0 renal): 173 nM
TGI (786-0 renal): 334 nM
GI50 (A498 renal): 2220 nM
TGI (A498 renal): 6860 nM
GI50 (A549 NSCLC): 224 nM
TGI (A549 NSCLC): 496 nM
GI50 (ACHN renal): 239 nM
TGI (ACHN renal): 598 nM
GI50 (BT-549 breast): 3260 nM
TGI (BT-549 breast): 20100 nM
GI50 (CAKI-1 renal): 557 nM
TGI (CAKI-1 renal): 1060 nM
GI50 (CCRF-CEM leukemia): 350 nM
TGI (CCRF-CEM leukemia): 1110 nM
GI50 (COLO 205 colon): 2040 nM
TGI (COLO 205 colon): 5950 nM
GI50 (DU-145 prostate): 191 nM
TGI (DU-145 prostate): 354 nM
GI50 (EKVX NSCLC): 437 nM
TGI (EKVX NSCLC): 1590 nM
GI50 (HCC-2998 colon): 2190 nM
TGI (HCC-2998 colon): 5100 nM
GI50 (HCT-116 colon): 2080 nM
TGI (HCT-116 colon): 8180 nM
GI50 (HCT-15 colon): 1150 nM
TGI (HCT-15 colon): 4670 nM
GI50 (HL-60(TB) leukemia): 330 nM
TGI (HL-60(TB) leukemia): 1120 nM
GI50 (HOP-62 NSCLC): 237 nM
TGI (HOP-62 NSCLC): 619 nM
GI50 (HOP-92 NSCLC): 213 nM
TGI (HOP-92 NSCLC): 468 nM
GI50 (HS 578T breast): 2930 nM
TGI (HS 578T breast): 15900 nM
GI50 (HT29 colon): 615 nM
TGI (HT29 colon): 2060 nM
GI50 (IGROV1 ovarian): 278 nM
TGI (IGROV1 ovarian): 799 nM
GI50 (K-562 leukemia): 1690 nM
TGI (K-562 leukemia): 8280 nM
GI50 (KM12 colon): 435 nM
TGI (KM12 colon): 1700 nM
GI50 (LOX IMVI melanoma): 152 nM
TGI (LOX IMVI melanoma): 304 nM
GI50 (M14 melanoma): 4310 nM
TGI (M14 melanoma): 30600 nM
GI50 (MALME-3M melanoma): 594 nM
TGI (MALME-3M melanoma): 2050 nM
GI50 (MCF7 breast): 2650 nM
TGI (MCF7 breast): > 87900 nM
GI50 (MDA-MB-231 breast): 549 nM
TGI (MDA-MB-231 breast): 2030 nM
GI50 (MDA-MB-435): 647 nM
TGI (MDA-MB-435): 1930 nM
GI50 (MOLT-4 leukemia): 1980 nM
TGI (MOLT-4 leukemia): 6540 nM
GI50 (NCI-H226 lung): 5060 nM
TGI (NCI-H226 lung): 19300 nM
GI50 (NCI-H23 lung): 237 nM
TGI (NCI-H23 lung): 595 nM
GI50 (NCI-H460 lung): 488 nM
TGI (NCI-H460 lung): 1660 nM
GI50 (NCI-H522 lung): 214 nM
TGI (NCI-H522 lung): 556 nM
GI50 (NCI/ADR-RES ovarian): 583 nM
TGI (NCI/ADR-RES ovarian): 1810 nM
GI50 (OVCAR-3 ovarian): 435 nM
TGI (OVCAR-3 ovarian): 1520 nM
GI50 (OVCAR-4 ovarian): 3810 nM
TGI (OVCAR-4 ovarian): 16300 nM
GI50 (OVCAR-5 ovarian): 1580 nM
TGI (OVCAR-5 ovarian): 15600 nM
GI50 (OVCAR-8 ovarian): 285 nM
TGI (OVCAR-8 ovarian): 1010 nM
GI50 (PC-3 prostate): 1730 nM
TGI (PC-3 prostate): 12500 nM
GI50 (RPMI-8226 leukemia): 830 nM
TGI (RPMI-8226 leukemia): 3690 nM
GI50 (RXF 393 renal): 554 nM
TGI (RXF 393 renal): 1290 nM
GI50 (SF-268 CNS): 2030 nM
TGI (SF-268 CNS): 6740 nM
GI50 (SF-295 CNS): 794 nM
TGI (SF-295 CNS): 2460 nM
GI50 (SF-539 CNS): 322 nM
TGI (SF-539 CNS): 988 nM
GI50 (SK-MEL-2 melanoma): 3690 nM
TGI (SK-MEL-2 melanoma): 13200 nM
GI50 (SK-MEL-28 melanoma): 17000 nM
TGI (SK-MEL-28 melanoma): > 100000 nM
GI50 (SK-MEL-5 melanoma): 3010 nM
TGI (SK-MEL-5 melanoma): 10000 nM
GI50 (SK-OV-3 ovarian): 7260 nM
TGI (SK-OV-3 ovarian): > 24200 nM
GI50 (SN12C renal): 1160 nM
TGI (SN12C renal): 3180 nM
GI50 (SNB-19 CNS): 8130 nM
TGI (SNB-19 CNS): > 100000 nM
GI50 (SNB-75 CNS): 1530 nM
TGI (SNB-75 CNS): 6020 nM
GI50 (SR leukemia): 216 nM
TGI (SR leukemia): 981 nM
GI50 (SW-620 colon): 2890 nM
TGI (SW-620 colon): 10100 nM
GI50 (T-47D breast): 1300 nM
TGI (T-47D breast): 6280 nM
GI50 (TK-10 renal): 350 nM
TGI (TK-10 renal): 989 nM
GI50 (U251 CNS): 301 nM
TGI (U251 CNS): 920 nM
GI50 (UACC-257 melanoma): 16100 nM
TGI (UACC-257 melanoma): > 100000 nM
GI50 (UACC-62 melanoma): 11200 nM
TGI (UACC-62 melanoma): > 59000 nM
GI50 (UO-31 renal): 187 nM
TGI (UO-31 renal): 363 nM
